# According to patent US20250177481A1, “SCO-spondin-derived polypeptides for enhancing synaptic transmission” (AXOLTIS PHARMA, priority 2021, published 2025):
# Where “and” joins values, the source holds several entries; their conditions need not be identical. Identical values can stand only once. Positions of bridges follow the written chain, without caps; N, C: chain ends. No end group written: not given here.
# Test system: Schaffer collateral-CA1 synaptic transmission in mouse hippocampal slices after OGD
# Assay: fEPSP recovery after oxygen-glucose deprivation (OGD) in hippocampal slices, treatment during OGD (Example 7)
# Assay type: cell-based, C57Bl6/J mice
# Settings: NX218 250 μg/mL during OGD, n=9 slices
# Description: Acute episodes of hypoxia may cause a depression in synaptic activity in many brain regions. […] To meet this goal, functional recovery was assessed by recording evoked field excitatory postsynaptic potentials (fEPSPs) in mouse hippocampal neurons, before and after oxygen-glucose deprivation (OGD).
# Experiments were carried out with 4-5 weeks old male C57Bl6/J mice (approximately 20 grams) obtained from Charles River, France. In total, 9 mice were used in this study. Two slices were recorded from each mouse (one for the control condition and another for the NX218 condition). Animals were acclimated to laboratory housing conditions for 13 days prior to experimental use. Standard Food (Type a04, SAFE, France) was available ad libitum. Filtered mains drinking water ([…]) was available ad libitum.
# Sagittal hippocampal brain slices were obtained using standard brain slicing methods (approximately 6 slices per mouse) (Knobloch et al. 2007). Mice were anesthetized with 5% isoflurane and then decapitated. Brain was dissected out of the cranium and immediately immersed in ice-cold freshly prepared artificial cerebrospinal fluid (aCSF) containing: 124 mM NaCl, 3.75 mM KCl, 2 mM MgSO4, 2 mM CaCl2, 26.5 mM NaHCO3, 1.25 mM NaH2PO4, 10 mM glucose, continuously oxygenated (95% O2, 5% CO2) (pH=7.4) for a total duration of 3-4 minutes. Acute slices (350 μm thick) were prepared using a vibratome (VT 1000S; Leica Microsystems, Bannockburn, IL). […]
# For electrophysiological recordings, a single slice was placed in the recording chamber (room temperature), submerged and continuously superfused with gassed aCSF (95% O2, 5% CO2; pH=7.4) at a constant rate (2 mL min^−1) for the reminder of the experiment. Extracellular field excitatory postsynaptic potentials (fEPSPs) were recorded in the CA1 stratum radiatum using a glass micropipette filled with aCSF. fEPSPs were evoked by the electrical stimulation of Schaffer collateral-commissural pathway at 0.1 Hz (i.e., a single pulse every 10 s) with a glass stimulating electrode (borosilicate capillary glass with filament, standard wall; OD: 1.5 mm; ID: 0.86 mm; Length: 75 mm; ref: W3 30-0060 from Harvard Apparatus) placed in the stratum radiatum.
# At the beginning of each experiment (when a stable fEPSP response was reached), Input/Output (I/O) curves were obtained by gradual increases in stimulus intensity (from 0 to 100 μA, 10 μA intervals) to determine the intensity of stimulation that was kept for the reminder of the experiment. Stable baseline fEPSPs was then recorded during 10 minutes by stimulating at 80% of maximal field amplitude (single pulse every 10 s, i.e., 0.1 Hz). […]
substance,measurement,setting,value
W-S-G-W-S-S-C-S-R-S-C-G [NX218] (WSGWSSCSRSCG; disulfide 7-11 (inferred)),averaged normalized f-EPSP slope,"0-30 min after start of OGD, vehicle 31.618",31.043 % of baseline
same,averaged normalized f-EPSP slope,"30-60 min after start of OGD, vehicle 47.152",61.7±5.0 % of baseline and 61.663 % of baseline
same,averaged normalized f-EPSP slope,"60-90 min after start of OGD, vehicle 69.598",88.0±2.6 % of baseline and 87.959 % of baseline
same,averaged normalized f-EPSP slope,"last 10 min (of 90 min) after start of OGD, vehicle 72.432",92.6±2.4 % of baseline and 92.639 % of baseline
